Converted amounts (≈) assume the structure as drawn. Like-named read-outs stand apart in the source and are kept apart here.
Key:
Assay type in all cases: cell-based
[1] = system: Pseudomonas aeruginosa clinical isolate; experiment: Susceptibility of clinical isolates by broth microdilution (MIC/MBC); conditions: for MBC: broth microdilution and plating, read-out: Minimum bactericidal concentration (MBC); for MIC: broth microdilution, 37° C., 18 hours, read-out: Minimum inhibitory concentration (MIC)
Method: (§1) Frozen stocks of the Staphylococcus sp. inocula were thawed at 37° C. for 10 minutes and vortexed before plating on blood agar and incubating at 37° C. for 18 hours. Single colonies were used to inoculate a volume of 10 mL of Mueller-Hinton Broth (MHB) and incubated at 37° C. for 18 hours in a shaking incubator (200 rpm). A volume of 100 μL of the actively growing culture was then used to inoculate a volume of 100 mL of MHB and incubated at 37° C. for 6½ hours. […] A volume of 100 μL of each dilution step was spread on plate count agar (PCA) plates and incubated at 37° C. for 18 hours to confirm viable cell numbers. The dilution to 10^−7 was used in the following steps.
(§2) The susceptibility of clinical isolates of Staphylococcus aureus, Escherichia coli and Pseudomonas aeruginosa to the constructs designated Spm-Ad-DOPE (9a) and NCSeCH2CO—CMG(2)-Ad-DOPE was determined by broth microdilution. Actively growing cultures of each clinical isolate were prepared as described above to obtain cultures with the following turbidities (OD600):
(§3) Serial dilutions of each culture to 10^−6 were prepared and used as inocula. Volumes of 50 μL of each dilution was spread on PCA plates and incubated at 37° C. for 18 hours. A two-fold dilution series for each of the two constructs, spermine (2) and selenous acid (H2SeO3) were prepared in sterile 96-well plates. Volumes of 50 μL of inocula were dispensed into a well containing a volume of 50 μL of the serially diluted construct, spermine (2) or selenous acid (H2SeO3). Following gentle mixing the plates were incubated in the dark at 37° C. for 18 hours (200 rpm). Minimum inhibitory concentrations (MIC) were thereby observed and minimum bactericidal concentrations (MBC) determined by plating aliquots from each well.

[2] = system: Staphylococcus aureus clinical isolate; experiment: as above; conditions: for MBC: broth microdilution and plating, read-out: Minimum bactericidal concentration (MBC); for MIC: broth microdilution, 37° C., 18 hours, read-out: Minimum inhibitory concentration (MIC)
Method: as §1, §2, §3

[3] = system: Escherichia coli clinical isolate; experiment: as above; conditions: for MBC: broth microdilution and plating, read-out: Minimum bactericidal concentration (MBC); for MIC: broth microdilution, 37° C., 18 hours, read-out: Minimum inhibitory concentration (MIC)
Method: as §1, §2, §3

[4] = system: Red blood cells (RBCs; group O); experiment: Adherence of red blood cells to treated microplate well surfaces
Method: A stock solution of the construct designated Spm-Ad-DOPE (9a) was prepared in methanol at a concentration of 10 mg/mL. The stock solution was diluted to a concentration of 250 μg/mL in methanol and 25 μL volumes of the diluted stock solutions dispensed into each of the round bottomed wells of a multi-well microplate (Corning Inc.). The plates were allowed to dry before washing the wells 6 times with deionized water.
Red blood cells (RBCs; group O, up to 2 weeks old) were washed and re-suspended at a concentration of 1% packed cell volume (pcv) in phosphate-buffered saline (PBS). A 50 μL volume of the suspension of RBCs was dispensed into each of the wells and incubated for 1 hour at room temperature before washing 6 times with PBS. The RBCs were fixed by adding a 50 μL volume of a solution of glutaraldehyde in PBS at a concentration of 2.5% (w/v) and incubating for 10 minutes before washing each well with water and allowing to dry. The RBCs were lysed by adding a 50 μL volume of deionized water and incubating for 10 minutes before discarding the water and allowing to dry.
For scanning electron microscopy (SEM) the bottom of each well was cut from the plate and the treated surface sputter coated with platinum prior to imaging.
A two-fold serial dilution from each of the first wells was then performed. […]

MIC ([1]; Pseudomonas aeruginosa) [mM] | MIC ([2]; Staphylococcus aureus) [µM] | MIC ([3]; Escherichia coli) [µM] | SMILES | MBC [1] [µM] | MIC [1] [mM] | MBC [2] [µM] | MIC [2] [µM] | MBC [3] [µM] | MIC [3] [µM] | Attachment of RBCs to treated wells ([4]; spermine alone) | Attachment of RBCs to treated wells ([4]; spermine alone in water) | MBC ([1]; Pseudomonas aeruginosa) [µM] | MBC ([2]; Staphylococcus aureus) [µM] | MBC ([3]; Escherichia coli) [µM]
 |  |  | O=[Se](O)O [H2SeO3, selenous acid] | >1985.01 | >1.98501 | >1985.01 | 1985.01 (≈ 256 µg/mL) | >1985.01 | 1985.01 (≈ 256 µg/mL) |  |  |  |  | 
3.79 (≈ 766 µg/mL) | 473 (≈ 95.8 µg/mL) | 118 (≈ 23.9 µg/mL) | NCCCNCCCCNCCCN [Spermine (2), spermine] |  |  |  |  |  |  | not uniform or reproducible | No cells were observed to adhere to the surface | > 3790 | 947 (≈ 192 µg/mL) | 118 (≈ 23.9 µg/mL)
